Format in all cases: biochemical
In one test the target is T1, JAK3 (Homo sapiens, UniProt P52333).
T1 construct: All four purified enzymes contain only the catalytic domain; His (N); purchased Carna Biosciences, Inc; host or cells: baculovirus expression system
Kind of test: JAK3 kinase assay (HTRF, inhibition of phosphorylation of a synthetic peptide). Conditions: catalytic domain, His-tag; 2 μM ATP (Km); read-out: JAK3 kinase inhibitory activity (EC50). How it is done:
(§1) JAK1, JAK2, JAK3 and TYK2 Kinase Assays:
(§2) Human baculovirus-expressed JAK1, 2, 3 and TYK2 were purchased from Carna Biosciences, Inc. All four purified enzymes contain only the catalytic domain. JAK1 (aa 850-1154) and TYK2 (aa 871-1187) are expressed with an N-terminally fused GST-tag, and JAK2 and JAK3 with an N-terminally fused His-tag. Inhibition of phosphorylation of a synthetic peptide was measured in an HTRF-based assay using the TK substrate-Biotin from the CisbioHTRFKinEASE TK kit. First, 2 μl of TK solution (TK substrate-biotin in kinase buffer [1× enzymatic buffer from HTRFKinEASE TK kit, 1 mM DTT]) is added to a plate containing 1 μl prediluted compound (final assay concentration DMSO: 0.75%). Then, 5 μl kinase-ATP mix (prepared in kinase buffer) is added to the wells and the plates are incubated at RT for 20-30 min. For all four kinases a concentration of ATP that corresponded to the Km for ATP was used. The final concentrations of buffers, substrate, kinase and ATP were: JAK1: 50 mMHepes buffer pH 7.0, 0.01% BSA, 10 mM MgCl2, 1 mM DTT, 7 μM ATP, 50 nMSEB, 1 μM TK Substrate-Biotin and 5 ng JAK1; JAK2: 50 mM Hepes buffer pH 7.0, 0.01% BSA, 5 mM MgCl2, 1 mM DTT, 4 μM ATP, 1 μM TK Substrate-Biotin and 0.1 ng JAK2; JAK3: 50 mMHepes buffer pH 7.0, 0.01% BSA, 5 mM MgCl2, 1 mM DTT, 2 μM ATP, 1 μM TK Substrate-Biotin and 0.3 ng JAK3; TYK2: 50 mMHepes buffer pH 7.0, 0.01% BSA, 5 mM MgCl2, 1 mM DTT, 13 μM ATP, 50 nMSEB, 1 μM TK Substrate-Biotin and 0.8 ng TYK2. Thereafter, the kinase reaction is stopped by adding 4 μl detection mix (final concentrations: 50 mM Hepes buffer pH 7.0, 0.01% BSA, 0.8 M KF, 20 mM EDTA, 42 nM Streptavidin-XL665 and 1:400 STKAbCryptate) and the plates are incubated overnight in the dark. The HTRF signal is read using an Envision plate reader.
On the technique in general: TR-FRET usually uses a lanthanide donor and a delayed reading to cut background.

The target of another test is T2, JAK2 (Homo sapiens, UniProt O60674).
T2 construct: All four purified enzymes contain only the catalytic domain; His (N); purchased Carna Biosciences, Inc; host or cells: baculovirus expression system
Kind of test: JAK2 kinase assay (HTRF, inhibition of phosphorylation of a synthetic peptide). The note with it: catalytic domain, His-tag; 4 μM ATP (Km); read-out: JAK2 kinase inhibitory activity (EC50). As to the method: as §1, §2

The target in the next test is T3, JAK1 (Homo sapiens, UniProt P23458).
T3 construct: JAK1 (aa 850-1154) and TYK2 (aa 871-1187) are expressed with an N-terminally fused GST-tag; GST (N); purchased Carna Biosciences, Inc; host or cells: baculovirus expression system
Kind of test: JAK1 kinase assay (HTRF, inhibition of phosphorylation of a synthetic peptide). Conditions: catalytic domain aa 850-1154, GST-tag; 7 μM ATP (Km); read-out: JAK1 kinase inhibitory activity (EC50). As to the method: as §1, §2

T3 sequence (P23458 850-1154): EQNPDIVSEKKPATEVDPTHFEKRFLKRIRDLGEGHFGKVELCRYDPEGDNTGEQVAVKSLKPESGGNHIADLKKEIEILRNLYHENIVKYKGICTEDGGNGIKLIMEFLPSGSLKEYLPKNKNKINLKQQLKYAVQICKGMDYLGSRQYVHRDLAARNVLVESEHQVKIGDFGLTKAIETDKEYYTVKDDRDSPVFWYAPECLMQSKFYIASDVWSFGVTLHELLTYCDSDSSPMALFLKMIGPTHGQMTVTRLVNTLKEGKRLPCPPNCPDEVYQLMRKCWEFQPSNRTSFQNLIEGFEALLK
T2 sequence (O60674 849-1124 limits assumed): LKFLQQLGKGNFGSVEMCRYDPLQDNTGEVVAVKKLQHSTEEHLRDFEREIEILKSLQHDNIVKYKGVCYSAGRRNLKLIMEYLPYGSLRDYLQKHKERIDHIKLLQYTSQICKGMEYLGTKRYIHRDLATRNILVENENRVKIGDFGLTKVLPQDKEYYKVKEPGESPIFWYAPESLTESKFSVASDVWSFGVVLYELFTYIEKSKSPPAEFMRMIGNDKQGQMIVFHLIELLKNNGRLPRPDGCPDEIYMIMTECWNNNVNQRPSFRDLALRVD
T1 sequence (P52333 822-1111 limits assumed): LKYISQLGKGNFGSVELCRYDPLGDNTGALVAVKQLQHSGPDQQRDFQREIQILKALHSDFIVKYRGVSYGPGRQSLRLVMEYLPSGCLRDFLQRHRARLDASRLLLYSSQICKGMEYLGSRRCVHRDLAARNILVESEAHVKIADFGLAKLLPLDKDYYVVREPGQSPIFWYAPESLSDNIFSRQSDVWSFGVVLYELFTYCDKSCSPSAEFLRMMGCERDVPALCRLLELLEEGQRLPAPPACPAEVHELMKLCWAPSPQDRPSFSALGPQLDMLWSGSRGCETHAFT

By EC50 is commonly meant the concentration giving half of the maximal effect. Regarding `O=C(CN1C(=O)CSC1=O)N1CCN(c2ncnc3[nH]ccc23)CC2(CC2)C1` [Example 79, 3-[2-oxo-2-[5-(7H-pyrrolo[2,3-d]pyrimidin-4-yl)-5,8-diazaspiro[2.6]nonan-8-yl]ethyl]thiazolidine-2,4-dione], the EC50 at JAK3, on JAK2 and on JAK1 was < 100 nM each time.

In the case of `CN1CC(=O)N(CC(=O)N2CCN(c3ncnc4[nH]ccc34)CC3(CC3)C2)C1=O` [Example 80, 1-methyl-3-[2-oxo-2-[5-(7H-pyrrolo[2,3-d]pyrimidin-4-yl)-5,8-diazaspiro[2.6]nonan-8-yl]ethyl]imidazolidine-2,4-dione], the concentration for a half-maximal effect (EC50) on JAK3 was 100 to 1000 nM; on JAK2, < 100 nM; on JAK1, 100 to 1000 nM.

Take `O=C(CN1CCOC1=O)N1CCN(c2ncnc3[nH]ccc23)CC2(CC2)C1` [Example 81, 3-[2-oxo-2-[5-(7H-pyrrolo[2,3-d]pyrimidin-4-yl)-5,8-diazaspiro[2.6]nonan-8-yl]ethyl]oxazolidin-2-one]: the EC50 at JAK3, at JAK2 and on JAK1 was 100 to 1000 nM each time.

As for `CN1CCN(CC(=O)N2CCN(c3ncnc4[nH]ccc34)CC3(CC3)C2)C1=O` [Example 82, 1-methyl-3-[2-oxo-2-[5-(7H-pyrrolo[2,3-d]pyrimidin-4-yl)-5,8-diazaspiro[2.6]nonan-8-yl]ethyl]imidazolidin-2-one], the EC50 at JAK3, at JAK2 and on JAK1 was 100 to 1000 nM throughout.

As for `CN1CCN(CC(=O)N2CCCN(c3ncnc4[nH]ccc34)CC23CC3)C1=O` [Example 83, 1-methyl-3-[2-oxo-2-[5-(7H-pyrrolo[2,3-d]pyrimidin-4-yl)-5,9-diazaspiro[2.6]nonan-9-yl]ethyl]imidazolidin-2-one], the EC50 at JAK3, on JAK2 and at JAK1 was 100 to 1000 nM throughout.

With `O=C1CCC(=O)N1CC(=O)N1CCCN(c2ncnc3[nH]ccc23)CC12CC2` [Example 84, 1-[2-oxo-2-[5-(7H-pyrrolo[2,3-d]pyrimidin-4-yl)-5,9-diazaspiro[2.6]nonan-9-yl]ethyl]pyrrolidine-2,5-dione], the EC50 at JAK3, at JAK2 and on JAK1 was 100 to 1000 nM throughout.

As for `O=C1CSC(=O)N1CC(=O)N1CCCN(c2ncnc3[nH]ccc23)CC12CC2` [Example 85, 3-[2-oxo-2-[5-(7H-pyrrolo[2,3-d]pyrimidin-4-yl)-5,9-diazaspiro[2.6]nonan-9-yl]ethyl]thiazolidine-2,4-dione], the EC50 at JAK3, at JAK2 and on JAK1 was 100 to 1000 nM throughout.

Turning to `O=C1OCCN1CC(=O)N1CCCN(c2ncnc3[nH]ccc23)CC12CC2` [Example 86, 3-[2-oxo-2-[5-(7H-pyrrolo[2,3-d]pyrimidin-4-yl)-5,9-diazaspiro[2.6]nonan-9-yl]ethyl]oxazolidin-2-one], the EC50 on JAK3 was > 1000 nM; on JAK2, 100 to 1000 nM; on JAK1 it was > 1000 nM.

In the case of `O=C(Cc1cscn1)N1CCN(c2ncnc3[nH]ccc23)CC2(CC2)C1` [Example 88, 1-[5-(7H-pyrrolo[2,3-d]pyrimidin-4-yl)-5,8-diazaspiro[2.6]nonan-8-yl]-2-thiazol-4-yl-ethanone], the EC50 on JAK3, on JAK2 and at JAK1 was 100 to 1000 nM in each case.

On to `O=C(Cc1cnc[nH]1)N1CCN(c2ncnc3[nH]ccc23)CC2(CC2)C1` [Example 89, 2-(1H-imidazol-5-yl)-1-[5-(7H-pyrrolo[2,3-d]pyrimidin-4-yl)-5,8-diazaspiro[2.6]nonan-8-yl]ethanone], for which the EC50 on JAK3, at JAK2 and at JAK1 was 100 to 1000 nM throughout.

For `Cc1ccc(S(=O)(=O)N2CCN(c3ncnc4[nH]ccc34)CC3(CC3)C2)cc1` [Example 96, 4-[8-(p-tolylsulfonyl)-5,8-diazaspiro[2.6]nonan-5-yl]-7H-pyrrolo[2,3-d]pyrimidine], the EC50 at JAK3 was > 1000 nM; at JAK2, 100 to 1000 nM; on JAK1, 100 to 1000 nM.

Take `Cc1oncc1C(=O)N1CCN(c2ncnc3[nH]ccc23)CC2(CC2)C1` [Example 108, (5-methylisoxazol-4-yl)-[5-(7H-pyrrolo[2,3-d]pyrimidin-4-yl)-5,8-diazaspiro[2.6]nonan-8-yl]methanone]: the EC50 at JAK3, at JAK2 and at JAK1 was 100 to 1000 nM in each case.

For the compound `Cc1ccccc1C(=O)N1CCN(c2ncnc3[nH]ccc23)CC2(CC2)C1` [Example 109, o-tolyl-[5-(7H-pyrrolo[2,3-d]pyrimidin-4-yl)-5,8-diazaspiro[2.6]nonan-8-yl]methanone], the EC50 on JAK3 was > 1000 nM; at JAK2 it was 100 to 1000 nM; on JAK1, > 1000 nM.

In the case of `Cc1ccccc1C(=O)N1CCCN(c2ncnc3[nH]ccc23)CC12CC2` [Example 110, o-tolyl-[5-(7H-pyrrolo[2,3-d]pyrimidin-4-yl)-5,9-diazaspiro[2.6]nonan-9-yl]methanone], the EC50 was > 1000 nM at JAK3, 100 to 1000 nM on JAK2 and 100 to 1000 nM on JAK1.

`O=C(c1ccccc1F)N1CCN(c2ncnc3[nH]ccc23)CC2(CC2)C1` [Example 111, (2-fluorophenyl)-[5-(7H-pyrrolo[2,3-d]pyrimidin-4-yl)-5,8-diazaspiro[2.6]nonan-8-yl]methanone]: the EC50 was > 1000 nM on JAK3, < 100 nM on JAK2 and 100 to 1000 nM at JAK1.

As to `O=C(c1ccccc1F)N1CCCN(c2ncnc3[nH]ccc23)CC12CC2` [Example 112, (2-fluorophenyl)-[5-(7H-pyrrolo[2,3-d]pyrimidin-4-yl)-5,9-diazaspiro[2.6]nonan-9-yl]methanone], the values for the EC50 on JAK3, at JAK2 and at JAK1 were 100 to 1000 nM, < 100 nM and 100 to 1000 nM, respectively.

Consider `O=C(c1ccc(F)cc1)N1CCN(c2ncnc3[nH]ccc23)CC2(CC2)C1` [Example 113, (4-fluorophenyl)-[5-(7H-pyrrolo[2,3-d]pyrimidin-4-yl)-5,8-diazaspiro[2.6]nonan-8-yl]methanone], for which the EC50 at JAK3, on JAK2 and at JAK1 was 100 to 1000 nM each time.

Take `O=C(c1ccc(F)cc1)N1CCCN(c2ncnc3[nH]ccc23)CC12CC2` [Example 114, (4-fluorophenyl)-[5-(7H-pyrrolo[2,3-d]pyrimidin-4-yl)-5,9-diazaspiro[2.6]nonan-9-yl]methanone]: the EC50 on JAK3 is 100 to 1000 nM; at JAK2 it was < 100 nM; at JAK1 it was 100 to 1000 nM.

For `N#Cc1ccc(/C=C/C(=O)N2CCN(c3ncnc4[nH]ccc34)CC3(CC3)C2)cc1` [Example 117, 4-[(E)-3-oxo-3-[5-(7H-pyrrolo[2,3-d]pyrimidin-4-yl)-5,8-diazaspiro[2.6]nonan-8-yl]prop-1-enyl]benzonitrile], the EC50 at JAK2 and at JAK1 was 100 to 1000 nM each time.

Consider `N#Cc1cccc(OCC(=O)N2CCN(c3ncnc4[nH]ccc34)CC3(CC3)C2)c1` [Example 118, 3-[2-oxo-2-[5-(7H-pyrrolo[2,3-d]pyrimidin-4-yl)-5,8-diazaspiro[2.6]nonan-8-yl]ethoxy]benzonitrile], for which the values for the EC50 on JAK3, on JAK2 and at JAK1 were 100 to 1000 nM, < 100 nM and 100 to 1000 nM, respectively.

For the compound `O=C(c1cnon1)N1CCCN(c2ncnc3[nH]ccc23)CC12CC2` [Example 121, 1,2,5-oxadiazol-3-yl-[5-(7H-pyrrolo[2,3-d]pyrimidin-4-yl)-5,9-diazaspiro[2.6]nonan-9-yl]methanone], the EC50 was < 100 nM at JAK3, 100 to 1000 nM on JAK2 and 100 to 1000 nM on JAK1.

`Cc1cc(C(=O)N2CCCN(c3ncnc4[nH]ccc34)CC23CC3)on1` [Example 122, (3-methylisoxazol-5-yl)-[5-(7H-pyrrolo[2,3-d]pyrimidin-4-yl)-5,9-diazaspiro[2.6]nonan-9-yl]methanone]: the concentration for a half-maximal effect (EC50) at JAK3 was 100 to 1000 nM; on JAK2, < 100 nM; at JAK1 it was < 100 nM.

The values are drawn from patent US9586961B2, “Homopiperazine derivatives as protein tyrosine kinase inhibitors and pharmaceutical use thereof” (LEO PHARMA A/S, priority 2010, dated 2017).
